Like-named read-outs stand apart in the source and are kept apart here. Where a SMILES comes first, the peptide text is derived from it. Where no end group is shown, it is not given here. [ ]: non-standard residue; d: D form.

The target in one test is T1, His-MUC1-CD oligomers (Homo sapiens, UniProt P15941).
T1 sequence (P15941 1184-1255): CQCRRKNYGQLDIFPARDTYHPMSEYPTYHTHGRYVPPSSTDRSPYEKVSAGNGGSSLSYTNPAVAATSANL
The experiment in a line: Oligomer formation of purified His-MUC1-CD (non-reducing SDS-polyacrylamide gel, anti-MUC1-C immunoblot). It counts as biochemical. The note with it: 200 μM peptide, 1 h at room temperature. The method, then: FIGS. 1A-D. MUC1/CQC peptide blocks MUC1 oligomerization. (FIG. 1A) Schematic representation of the MUC1-C subunit and the 72-amino acid sequence of MUC1-CD (SEQ ID NO: 1) are shown. The N-terminal 15 amino acids (shaded sequence; SEQ ID NO: 3) MUC1/CQC (SEQ ID NO: 63) and mutated MUC1/AQA (SEQ ID NO: 60) peptides were synthesized with the poly-dArg transduction domain. (FIG. 1B) His-MUC1-CD (1.4 mg/ml) was immobilized on a sensor chip in a BIAcore. MUC1/CQC was injected over the chip at 10 μM. Raw binding data were analyzed by BIAevaluation software version 3.0 and fit to a 1:1 Languir binding model. (FIG. 1C) Purified His-MUC1-CD (1.5 mg/ml) was incubated with PBS, 200 μM MUC1/CQC or 200 μM MUC1/AQA for 1 h at room temperature. The proteins were separated in a non-reducing SDS-polyacrylamide gel and analyzed by immunoblotting with anti-MUC1-C. (FIG. 1D) 293 cells were transiently transfected to express an empty vector or GFP-MUC1-CD and Flag-MUC1-CD. At 48 h after transfection, the cells were treated with 5 μM MUC1/CQC or MUC1/AQA for 3 d. The cells were then harvested for immunoblotting with anti-MUC1-C (left panel). […]
The MUC1 cytoplasmic domain (MUC1-CD) contains a CQC motif that is necessary for the formation of oligomers and nuclear localization (Leng et al., 2007). […] Purified His-tagged MUC1-CD forms oligomers as detected by electrophoresis in polyacrylamide gels (FIG. 1C). […]

Test [1] concerns ZR-75-1 breast tumor xenografts. The method, then:
FIGS. 5A-C. […] (FIG. 5A) Four to six week-old female Balb-c nu/nu mice were implanted with 17-β-estradiol plugs. After 24 h, ZR-75-1 breast cancer cells (imbedded in matrigel) were injected subcutaneously in the flank. When tumors were ˜150 mm3, the mice were paired matched into groups and injected intraperitoneally with PBS (vehicle control; closed squares), 50 mg/kg MUC1/AQA peptide (control peptide; open squares) or 10 mg/kg MUC1/CQC peptide (closed triangles) daily for 21 d. Another group was treated with 50 mg/kg MUC1/CQC peptide daily (⇑) for 6 d (open triangles). Mice were weighed twice weekly and tumor measurements were performed every 4 d. (FIGS. 5B and 5C). On day 24 (asterisk), tumors harvested from the control group and the group treated with 50 mg/kg/d×6d were stained with H&E (FIG. 5B) and with an antibody against MUC1 (FIG. 5C).
(FIG. 6A) Mice were injected with ZR-75-1 cells as described in the legend to FIG. 5A. When tumors were ˜275 mm^3, the mice were paired matched into groups and injected intraperitoneally with PBS (vehicle control; open squares) or 30 mg/kg MUC1/CQC peptide (closed squares) daily for 21 days (solid horizontal bar). […] The treated mice were monitored until day 52 when tumors were harvested for H&E staining (FIG. 6B).
Balb-c nu/nu female mice (Charles River Laboratories, Wilmington, Mass.), 4-6 weeks old weighing 18-22 grams, were implanted subcutaneously with 17-β-estradiol plugs (0.72 mg; Innovative Research, Sarasota, Fla.) using a trocar gun. After 24 h, 1×10^7 ZR-75-1 cells imbedded in Matri-Gel (BD Biosciences) were injected subcutaneously in the flank. When tumors were detectable at ˜150 mm^3 (Cohort 1) or 275 mm^3 (Cohort 2), the mice were pair matched into treatment and control groups. Each group contained 5 mice, each of which was ear tagged and followed throughout the study. Initial dosing was administered at the time of pair matching (day 1). Phosphate-buffered saline (vehicle), MUC1/CQC peptide and MUC1/AQA peptide were administered daily by intraperitoneal injection. Mice were weighed twice weekly, and tumor measurements were performed using calipers every 4 d. Tumor volume (V) was calculated using the formula V=W2×L/2, where W and L are the smaller and larger diameters, respectively. At sacrifice, the mice were perfused with saline and then phosphate-buffered formalin by cardiac administration. Tumors were excised, immersion fixed for 4 h, dehydrated through a graded series of ethanols, and processed for routine paraffin embedding. Tumors were evaluated by H&E staining and for immunoperoxidase staining with anti-MUC1 as described (Kufe, 1984).
To determine if administration of the MUC1/CQC peptide is associated with effects on body weight, five female nude (nu/nu) mice were injected intraperitoneally (IP) once each day at a dose of 50 mg/kg. […] To assess anti-tumor activity, ZR-75-1 cells (1×10^7) were implanted subcutaneously into the flanks of nude mice. After 12 d, mice bearing tumors of approximately 150 mm^3 were treated with the MUC1/CQC peptide at doses of 10 and 50 mg/kg/d. As controls, mice were treated with vehicle alone or with the MUC1/AQA peptide. […] To assess in part the basis for the activity, tumors harvested from control and treated mice were examined by histopathology. […] Sections of the tumors were also stained with an antibody against MUC1.
Studies were also performed on larger tumors (˜275 mm^3) (FIG. 6A).

The mark [2] stands for this setting: 30 mg/kg/d×21 d, tumors harvested on day 52.

As for `CC[C@H](C)[C@H](NC(=O)[C@H](CC(=O)O)NC(=O)[C@H](CC(C)C)NC(=O)[C@H](CCC(N)=O)NC(=O)CNC(=O)[C@H](Cc1ccc(O)cc1)NC(=O)[C@H](CC(N)=O)NC(=O)[C@H](CCCCN)NC(=O)[C@H](CCCNC(=N)N)NC(=O)[C@H](CCCNC(=N)N)NC(=O)[C@H](CS)NC(=O)[C@H](CCC(N)=O)NC(=O)[C@H](CS)NC(=O)[C@@H](CCCNC(=N)N)NC(=O)[C@@H](CCCNC(=N)N)NC(=O)[C@@H](CCCNC(=N)N)NC(=O)[C@@H](CCCNC(=N)N)NC(=O)[C@@H](CCCNC(=N)N)NC(=O)[C@@H](CCCNC(=N)N)NC(=O)[C@@H](CCCNC(=N)N)NC(=O)[C@@H](CCCNC(=N)N)NC(=O)[C@H](N)CCCNC(=N)N)C(=O)N[C@@H](Cc1ccccc1)C(=O)N1CCC[C@H]1C(=O)O` [MUC1/CQC] (H-[dR][dR][dR][dR][dR][dR][dR][dR][dR]CQCRRKNYGQLDIFP-OH; N-terminus and C-terminus assumed), at His-MUC1-CD oligomers, the “oligomer formation of His-MUC1-CD” value was “substantially decreased oligomer formation”. In addition, the tumor growth entry in test [1] (10 mg/kg/d×21 d IP, tumors ~150 mm3, compared with MUC1/AQA 50 mg/kg/d) is “slowed growth”; in test [1] (30 mg/kg/d×21 d IP, larger tumors ~275 mm3) it was “arrest of tumor growth”; in test [1] (10 and 30 mg/kg/d for 21 d) it was “effective in abrogating tumor growth”. Besides, in test [1] (setting [2]), the “MUC1 expression in tumors” value is “down-regulation of MUC1 expression”. Besides, the “tumor histopathology (H&E)” value is recorded as “extensive areas of necrosis” in test [1] (setting [2]); “markedly necrotic” in test [1] (10 and 50 mg/kg, compared with vehicle or MUC1/AQA). In test [1] (50 mg/kg/d IP, initial 7 d, tumors ~150 mm3), the “tumor growth during treatment” value is “blocked growth”. Also, the “MUC1 expression in tumors (anti-MUC1 staining)” value in test [1] (tumors ~150 mm3 cohort, compared with control and MUC1/AQA) is listed as “marked down-regulation of MUC1 expression”.

As for “MUC1/AQA: control peptide in which the CQC motif was altered to AQA, with poly-dArg transduction domain; SEQ ID NO: 60 ([dR][dR][dR][dR][dR][dR][dR][dR][dR]AQARRKNYGQLDIFP) [reference compound]”, in the test with His-MUC1-CD oligomers, the “oligomer formation of His-MUC1-CD” value was “little if any effect”. For the same compound, in test [1] (50 mg/kg/d for 21 d), the anti-tumor activity result is recorded as “no anti-tumor activity”.
